# Columns and labels:
# [1] = system: lymphocyte migration toward I-TAC; assay: Lymphocyte migration toward I-TAC; format: cell-based; conditions: 100% human plasma, read-out: Migration to ITAC IC50 (nM) 100% Plasma
# [2] = Multiple dosing of AMG 487 in humans; format: in vivo, human
# Text: Thus, there remains a need to identify a suitable clinical candidate devoid of the unpredicted accumulation seen with AMG 487. Such compounds are provided herein.
# [3] = target: T1, CXCR3 (Homo sapiens, UniProt P49682); assay: 125I-I-TAC binding assay (CXCR3 binding); conditions: 50% human plasma; primary, activated human lymphocytes
# T1 construct: endogenous in cells
# T1 sequence (P49682 1-368): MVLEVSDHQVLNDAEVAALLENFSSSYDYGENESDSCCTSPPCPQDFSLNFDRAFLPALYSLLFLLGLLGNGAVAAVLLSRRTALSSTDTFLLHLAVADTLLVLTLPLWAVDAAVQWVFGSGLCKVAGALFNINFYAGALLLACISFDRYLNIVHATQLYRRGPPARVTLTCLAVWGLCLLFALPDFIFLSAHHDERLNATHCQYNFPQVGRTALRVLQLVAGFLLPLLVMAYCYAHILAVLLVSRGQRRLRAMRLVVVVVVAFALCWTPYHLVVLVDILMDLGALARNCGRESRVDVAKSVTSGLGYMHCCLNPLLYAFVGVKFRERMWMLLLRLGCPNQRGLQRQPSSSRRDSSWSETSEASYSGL
# Procedure: (§1) Unless otherwise noted, all reagents used are available from commercial sources (e.g., Sigma). Test compounds are diluted in DMSO to a concentration that is 40-times the intended final assay concentration; 5 μL are transferred to each well of a 96-well flat-bottomed polypropylene plate (e.g., from Greiner, Inc.). The cells were resuspended in assay buffer (25 mM Hepes, 80 mM NaCl, 1 mM CaCl2, 5 mM MgCl2, 0.2% bovine serum albumin, pH 7.1, stored at 4° C.) at 5 million cells per mL; 100 μL of this cell suspension is then transferred to each well of a 96-well plate containing the diluted test compounds. ^125I-labelled chemokine (purchased from commercial sources, e.g., Amersham, PE Life Sciences) is diluted in assay buffer to a concentration of approximately 60 pM; 100 μL of this chemokine solution is transferred to each well of a 96-well plate containing compounds and cell suspension. The plates are sealed with commercially available foil plate seals (e.g., from E&K Scientific), and stored at 4° C. for 2 to 4 h, shaking gently. […] The plates are counted on a scintillation counter, such as a Packard TopCount. […] Data were analyzed using commercially available software (e.g., Excel from Microsoft, Prism from GraphPad Software Inc.).
# [4] = target: T1, CXCR3; assay: [125I]-IP-10 binding assay (CXCR3 binding)
# Procedure: as §1
# [5] = system: cellular migration into the lung; assay: Cellular migration into the lung following bleomycin challenge; format: in vivo; conditions: following bleomycin challenge (FIG. 1)
# [6] = target: T1, CXCR3; assay: HWB receptor occupancy (500 ng/ml ITAC); format: cell-based
# [7] = target: CYP3A4 (Homo sapiens, UniProt P08684); conditions: human hepatocytes and microsomes
# CYP3A4, sequence (P08684 whole entry): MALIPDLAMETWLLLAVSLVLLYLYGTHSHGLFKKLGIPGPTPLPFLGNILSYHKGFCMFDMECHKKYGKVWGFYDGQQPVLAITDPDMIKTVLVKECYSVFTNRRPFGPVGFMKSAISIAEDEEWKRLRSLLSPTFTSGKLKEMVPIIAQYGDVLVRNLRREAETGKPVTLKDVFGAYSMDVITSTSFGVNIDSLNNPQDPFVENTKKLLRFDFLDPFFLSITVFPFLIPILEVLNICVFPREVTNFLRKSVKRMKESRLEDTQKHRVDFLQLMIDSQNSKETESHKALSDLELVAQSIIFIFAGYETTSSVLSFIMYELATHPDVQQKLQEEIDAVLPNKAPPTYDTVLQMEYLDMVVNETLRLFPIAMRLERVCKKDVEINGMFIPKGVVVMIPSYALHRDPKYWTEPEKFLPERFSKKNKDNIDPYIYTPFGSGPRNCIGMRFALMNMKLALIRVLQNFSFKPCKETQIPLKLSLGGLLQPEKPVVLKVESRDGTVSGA
SMILES,IC50 [1] [nM],Accumulation of the compound upon multiple dosing [2],IC50 [3] [nM],"IC50 ([4]; [125I]-IP-10 Binding IC50 (nM) 50% Plasma, 50% human plasma, primary, activated human lymphocytes) [nM]","IC50 ([4]; buffer, read-out: [125I]-IP-10 Binding IC50 (nM) Buffer) [nM]",Cellular migration into the lung [5],IC50 [6] [nM],CYP3A4 inhibition [7]
"CCOc1ccc(-n2c([C@@H](C)N(Cc3cccnc3)C(=O)Cc3ccc(OC(F)(F)F)cc3)nc3ncccc3c2=O)cc1 [AMG 487, reference compound]",346 ± 123,dose-dependent accumulation,,,,,,
C[C@H](c1nc2ncccc2c(=O)n1-c1ccc(Cl)cc1)N(CC1CCS(=O)(=O)CC1)C(=O)Cc1ccc(C(F)(F)F)c(F)c1 [Compound 1],65 ± 14,,51 ± 20,12 ± 5,7 ± 2,inhibits cellular migration into the lung,9.8 ± 4.4,
CC(c1nc2ncccc2c(=O)n1-c1ccc(O)cc1)N(Cc1cccnc1)C(=O)Cc1ccc(OC(F)(F)F)cc1 (stereo not drawn) [Compound M2],,,,,,,,time-dependent inhibitor of CYP3A4

# Source: patent publication US20110034487A1, “CXCR3 ANTAGONISTS” (AMGEN INC., priority 2009, published 2011)
